Test results published in the NIST ThermoML archive (doi:10.1016/j.jct.2005.05.007).

Tests used:
[1] = refractive index (Na D-line) (dimensionless); details: 298.15 K; 101.33 kPa; Liquid; Standard Abbe refractometry
[2] = 298.15 K; 101.33 kPa; Liquid; Vibrating tube method
[3] = xn = mol fraction of the nth substance listed; details: 298.15 K, 101 kPa, Liquid, Vibrating tube method

CCCCO [butan-1-ol]
Details	mass density [kg/m3]	refractive index
[1]	–	1.397
[2]	805.8	–

CCO [ethanol]
Details	mass density [kg/m3]	refractive index
[1]	–	1.3593
[2]	785.1	–

CO [methanol]
Details	mass density [kg/m3]	refractive index
[1]	–	1.3265
[2]	786.6	–

CCCCCO [pentan-1-ol]
Details	mass density [kg/m3]	refractive index
[1]	–	1.4078
[2]	810.8	–

CCCO [propan-1-ol]
Details	mass density [kg/m3]	refractive index
[1]	–	1.3834
[2]	799.6	–

CC(C)O [propan-2-ol]
Details	mass density [kg/m3]	refractive index
[1]	–	1.3748
[2]	780.9	–

CCC#N [propanenitrile]
Details	mass density [kg/m3]	refractive index
[1]	–	1.3633
[2]	776.8	–

CCC#N [propanenitrile] + CC(C)O
[3]
Details	mass density [kg/m3]
x2 = 0.0579	776.1
x2 = 0.0955	775.8
x2 = 0.1396	775.5
x2 = 0.183	775.4
x2 = 0.2321	775.3
x2 = 0.2775	775.4
x2 = 0.3274	775.5
x2 = 0.3784	775.6
x2 = 0.4249	775.8
x2 = 0.4768	776
x2 = 0.5385	776.4
x2 = 0.5752	776.6
x2 = 0.6307	777
x2 = 0.6763	777.4
x2 = 0.7286	777.9
x2 = 0.7788	778.4
x2 = 0.8384	779.1
x2 = 0.8929	779.7
x2 = 0.9416	780.2

CCC#N [propanenitrile] + CCCCCO
[3]
Details	mass density [kg/m3]
x2 = 0.0353	778.3
x2 = 0.0649	779.6
x2 = 0.1026	781.1
x2 = 0.1379	782.6
x2 = 0.1786	784.2
x2 = 0.2164	785.7
x2 = 0.2613	787.5
x2 = 0.3031	789.1
x2 = 0.3464	790.7
x2 = 0.3917	792.4
x2 = 0.4396	794.1
x2 = 0.489	795.8
x2 = 0.5444	797.7
x2 = 0.6012	799.5
x2 = 0.6547	801.2
x2 = 0.7186	803.2
x2 = 0.7788	804.9
x2 = 0.8488	806.9
x2 = 0.9162	808.7

CCC#N [propanenitrile] + CCCCO
[3]
Details	mass density [kg/m3]
x2 = 0.0391	778
x2 = 0.1177	780.4
x2 = 0.1625	781.8
x2 = 0.1984	782.9
x2 = 0.2481	784.4
x2 = 0.3398	787.4
x2 = 0.385	788.7
x2 = 0.4364	790.2
x2 = 0.4813	791.6
x2 = 0.539	793.3
x2 = 0.5821	794.6
x2 = 0.6363	796.2
x2 = 0.7036	798.1
x2 = 0.7441	799.2
x2 = 0.8103	801
x2 = 0.8795	802.8
x2 = 0.9334	804.1

CCC#N [propanenitrile] + CCCO
[3]
Details	mass density [kg/m3]
x2 = 0.0465	777.6
x2 = 0.0955	778.5
x2 = 0.143	779.4
x2 = 0.1882	780.3
x2 = 0.2387	781.4
x2 = 0.2837	782.4
x2 = 0.3347	783.6
x2 = 0.3775	784.6
x2 = 0.4341	786
x2 = 0.4827	787.2
x2 = 0.5841	789.7
x2 = 0.6371	791
x2 = 0.7389	793.5
x2 = 0.7795	794.5
x2 = 0.8329	795.8
x2 = 0.8919	797.2
x2 = 0.9355	798.2

CCC#N [propanenitrile] + CCO
[3]
Details	mass density [kg/m3]
x2 = 0.0627	776.8
x2 = 0.129	777
x2 = 0.1754	777.2
x2 = 0.2486	777.6
x2 = 0.2872	777.9
x2 = 0.3419	778.4
x2 = 0.3978	778.9
x2 = 0.4563	779.5
x2 = 0.5001	780
x2 = 0.5577	780.6
x2 = 0.6025	781.1
x2 = 0.6433	781.6
x2 = 0.6925	782.2
x2 = 0.7416	782.7
x2 = 0.7823	783.2
x2 = 0.8218	783.6
x2 = 0.8737	784.2
x2 = 0.9146	784.6
x2 = 0.9565	784.9

CCC#N [propanenitrile] + CO
[3]
Details	mass density [kg/m3]
x2 = 0.0822	777.3
x2 = 0.1672	777.9
x2 = 0.2338	778.4
x2 = 0.2992	779
x2 = 0.3634	779.7
x2 = 0.4258	780.3
x2 = 0.4879	781
x2 = 0.5403	781.6
x2 = 0.5844	782.1
x2 = 0.6226	782.6
x2 = 0.6752	783.3
x2 = 0.7183	783.8
x2 = 0.763	784.4
x2 = 0.7996	784.8
x2 = 0.8366	785.3
x2 = 0.8743	785.8
x2 = 0.9088	786.1
x2 = 0.9384	786.3
x2 = 0.9696	786.5
